Assay results taken from article PMC10819243 (Pharmaceutics, 2024).
Like-named read-outs stand apart in the source and are kept apart here.

Experiments:
HeLa = assay: MTT assay, HeLa; type: cell-based; conditions: for IC50: Homo sapiens, MTT assay, HeLa cervix carcinoma, (±s) standard deviation; for Selectivity Index HeLa: IC50 for normal cell line (HDF)/IC50 for HeLa
KB = assay: MTT assay, KB; type: cell-based; conditions: for IC50: Homo sapiens, MTT assay, KB nasopharynx carcinoma, (±s) standard deviation; for Selectivity Index KB: IC50 for normal cell line (HDF)/IC50 for KB
MCF-7 = assay: MTT assay, MCF-7; type: cell-based; conditions: for IC50: Homo sapiens, MCF7, MTT assay, MCF-7 breast carcinoma, (±s) standard deviation; for Selectivity Index MCF-7: IC50 for normal cell line (HDF)/IC50 for MCF-7
A-549 = assay: MTT assay, A-549; type: cell-based; conditions: for IC50: Homo sapiens, A549, MTT assay, A-549 lung carcinoma, (±s) standard deviation; for Selectivity Index A-549: IC50 for normal cell line (HDF)/IC50 for A-549
[1] = system: HDF (normal fibroblast cell line); assay: MTT assay, HDF; type: cell-based, human; conditions: MTT assay, HDF normal fibroblast cell line, (±s) standard deviation
[2] = system: HeLa, KB, MCF-7, A-549 and HDF cell lines; assay: MTT assay, statements over several tested cell lines; type: cell-based; conditions: for times less active than mother OA (1): over the tested cell lines
[3] = ratio of IC50 values vs oleanolic acid (1)
[4] = summary over the tested cell lines, read-out: IC50 values for the tested cell lines (range or summary)
[5] = one approximate value or range for the four cancer cell lines, apart from HDF, read-out: IC50 for HeLa, KB, MCF-7, and A-549 cancer cell lines

COC(=O)[C@]12CCC(C)(C)CC1C1=CCC3[C@@]4(C)CC/C(=N\OC(C)=O)C(C)(C)C4CC[C@@]3(C)[C@]1(C)CC2 (some centres unmarked) [Compound 5a, 3-Acetoxyiminoolean-12-en-28-oic acid methyl ester]
IC50 (HeLa): 11.1 µM
Selectivity Index HeLa (HeLa): 2.62
IC50 (KB): 11.4 µM
Selectivity Index KB (KB): 2.55
fold as active as OA (1), KB (KB; [3]): about 1.3 fold
IC50 (MCF-7): 10.5 µM
Selectivity Index MCF-7 (MCF-7): 2.76
fold as active as OA (1), MCF-7 (MCF-7; [3]): about 1.3 fold
IC50 (A-549): 10.6 µM
Selectivity Index A-549 (A-549): 2.74
IC50 ([1]; Homo sapiens, Fibroblast): 29 µM

COC(=O)[C@]12CCC(C)(C)CC1C1=CCC3[C@@]4(C)CC/C(=N\OC(=O)c5ccc([N+](=O)[O-])cc5)C(C)(C)C4CC[C@@]3(C)[C@]1(C)CC2 (some centres unmarked) [Compound 5f, 3-(4′-Nitro)benzoxyiminoolean-12-en-28-oic acid methyl ester]
IC50 (HeLa): 62 µM
Selectivity Index HeLa (HeLa): 2.13
IC50 (KB): 60.7 µM
Selectivity Index KB (KB): 2.18
IC50 (MCF-7): 61.4 µM
Selectivity Index MCF-7 (MCF-7): 2.15
IC50 (A-549): 69.9 µM
Selectivity Index A-549 (A-549): 1.89
IC50 ([1]; Homo sapiens, Fibroblast): 132 µM
IC50 [2, 4]: 60.7 to 132 µM

CC1(C)CC[C@]2(C(=O)O)CC[C@]3(C)C(=CC[C@@H]4[C@@]5(C)CC[C@H](O)C(C)(C)[C@@H]5CC[C@]43C)[C@@H]2C1 [Compound 1, oleanolic acid, reference compound]
IC50 ([1]; Homo sapiens, Fibroblast): 17.9 µM

COC(=O)[C@]12CCC(C)(C)CC1C1=CC(=O)C3[C@@]4(C)CC/C(=N\OC(=O)c5cccc([N+](=O)[O-])c5)C(C)(C)C4CC[C@@]3(C)[C@]1(C)CC2 (some centres unmarked) [Compound 6e, 3-(3′-Nitro)benzoxyimino-11-oxoolean-12-en-28-oic acid methyl ester]
IC50 (HeLa): 71.2 µM
Selectivity Index HeLa (HeLa): 1.36
IC50 (KB): 70 µM
Selectivity Index KB (KB): 1.39
IC50 (MCF-7): 75 µM
Selectivity Index MCF-7 (MCF-7): 1.29
IC50 (A-549): 74 µM
Selectivity Index A-549 (A-549): 1.31
IC50 ([1]; Homo sapiens, Fibroblast): ~97 µM
IC50 [1]: 97 µM
IC50 [2, 5]: 70 to 74 µM

CC1(C)CC[C@]2(C(=O)N3CCOCC3)CC[C@]3(C)C(=CCC4[C@@]5(C)CC/C(=N\OC(=O)c6ccc([N+](=O)[O-])cc6)C(C)(C)C5CC[C@]43C)C2C1 (some centres unmarked) [Compound 7f, 3-(4′-Nitro)benzoxyiminoolean-12-en-28-oic acid morpholide]
IC50 (HeLa): 60 µM
Selectivity Index HeLa (HeLa): 1.42
IC50 (KB): 61.5 µM
Selectivity Index KB (KB): 1.38
IC50 (MCF-7): 57.2 µM
Selectivity Index MCF-7 (MCF-7): 1.49
IC50 (A-549): 62.9 µM
Selectivity Index A-549 (A-549): 1.35
IC50 ([1]; Homo sapiens, Fibroblast): 85.1 µM
IC50 [2, 4]: 40 to 66 µM

CC1(C)CC[C@]2(C(=O)N3CCOCC3)CC[C@]3(C)C(=CCC4[C@@]5(C)CC/C(=N\OC(=O)c6cccc([N+](=O)[O-])c6)C(C)(C)C5CC[C@]43C)C2C1 (some centres unmarked) [Compound 7e, 3-(3′-Nitro)benzoxyiminoolean-12-en-28-oic acid morpholide]
IC50 (HeLa): 12.1 µM
Selectivity Index HeLa (HeLa): 2.32
IC50 (KB): 13.9 µM
Selectivity Index KB (KB): 2.02
IC50 (MCF-7): 10.2 µM
Selectivity Index MCF-7 (MCF-7): 2.75
IC50 (A-549): 13.8 µM
Selectivity Index A-549 (A-549): 2.03
IC50 ([1]; Homo sapiens, Fibroblast): 28 µM
IC50 values for the tested cell lines (range or summary) ([2]; summary over the tested cell lines): comparable to those of OA (1)

CC(=O)O/N=C1\CC[C@@]2(C)C(CC[C@]3(C)C2CC=C2C4CC(C)(C)CC[C@]4(C(=O)N4CCOCC4)CC[C@]23C)C1(C)C (some centres unmarked) [Compound 7a, 3-Acetoxyiminoolean-12-en-28-oic acid morpholide]
IC50 (HeLa): 82.2 µM
Selectivity Index HeLa (HeLa): 1.41
IC50 (KB): 81.5 µM
Selectivity Index KB (KB): 1.42
IC50 (MCF-7): 81 µM
Selectivity Index MCF-7 (MCF-7): 1.43
IC50 (A-549): 84.9 µM
Selectivity Index A-549 (A-549): 1.37
IC50 ([1]; Homo sapiens, Fibroblast): 116 µM
times less active than mother OA (1) [2]: about 8 fold
IC50 [2, 4]: ≥ 80 µM

COC(=O)[C@]12CCC(C)(C)CC1C1=CC(=O)C3[C@@]4(C)CC/C(=N\OC(C)=O)C(C)(C)C4CC[C@@]3(C)[C@]1(C)CC2 (some centres unmarked) [Compound 6a, 3-Acetoxyimino-11-oxoolean-12-en-28-oic acid methyl ester]
IC50 (HeLa): 27.4 µM
Selectivity Index HeLa (HeLa): 1.79
IC50 (KB): 27.9 µM
Selectivity Index KB (KB): 1.76
IC50 (MCF-7): 28 µM
Selectivity Index MCF-7 (MCF-7): 1.75
IC50 (A-549): 28.2 µM
Selectivity Index A-549 (A-549): 1.74
IC50 ([1]; Homo sapiens, Fibroblast): ~49 µM
IC50 [1]: 49.1 µM
IC50 [2, 5]: ~28 µM

COC(=O)[C@]12CCC(C)(C)CC1C1=CC(=O)C3[C@@]4(C)CC/C(=N\OC(=O)c5ccc([N+](=O)[O-])cc5)C(C)(C)C4CC[C@@]3(C)[C@]1(C)CC2 (some centres unmarked) [Compound 6f, 3-(4′-Nitro)benzoxyimino-11-oxoolean-12-en-28-oic acid methyl ester]
IC50 (HeLa): 28.3 µM
Selectivity Index HeLa (HeLa): 1.31
IC50 (KB): 26.3 µM
Selectivity Index KB (KB): 1.41
IC50 (MCF-7): 26 µM
Selectivity Index MCF-7 (MCF-7): 1.43
IC50 (A-549): 28.1 µM
Selectivity Index A-549 (A-549): 1.32
IC50 ([1]; Homo sapiens, Fibroblast): 37.2 µM

CCC(=O)O/N=C1\CC[C@@]2(C)C(CC[C@]3(C)C2CC=C2C4CC(C)(C)CC[C@]4(C(=O)OC)CC[C@]23C)C1(C)C (some centres unmarked) [Compound 5c, 3-Propionoxyiminoolean-12-en-28-oic acid methyl ester]
IC50 (HeLa): 38.1 µM
Selectivity Index HeLa (HeLa): 1.05
IC50 (KB): 38.8 µM
Selectivity Index KB (KB): 1.03
IC50 (MCF-7): 38.1 µM
Selectivity Index MCF-7 (MCF-7): 1.05
IC50 (A-549): 36.2 µM
Selectivity Index A-549 (A-549): 1.10
IC50 ([1]; Homo sapiens, Fibroblast): 39.9 µM
times less active than mother OA (1) [2]: 2.2–4.1 fold

COC(=O)[C@]12CCC(C)(C)CC1C1=CC(=O)C3[C@@]4(C)CC/C(=N\OC(=O)c5ccccc5)C(C)(C)C4CC[C@@]3(C)[C@]1(C)CC2 (some centres unmarked) [Compound 6d, 3-Benzoxyimino-11-oxoolean-12-en-28-oic acid methyl ester]
IC50 (HeLa): 28.4 µM
Selectivity Index HeLa (HeLa): 1.48
IC50 (KB): 27.2 µM
Selectivity Index KB (KB): 1.54
IC50 (MCF-7): 27.5 µM
Selectivity Index MCF-7 (MCF-7): 1.53
IC50 (A-549): 27.8 µM
Selectivity Index A-549 (A-549): 1.51
IC50 ([1]; Homo sapiens, Fibroblast): ~42 µM
IC50 [1]: 42 µM
IC50 [2, 5]: ~27 µM

CC1(C)CC[C@]2(C(=O)N3CCOCC3)CC[C@]3(C)C(=CCC4[C@@]5(C)CC/C(=N\OC(=O)c6ccccc6)C(C)(C)C5CC[C@]43C)C2C1 (some centres unmarked) [Compound 7d, 3-Benzoxyiminoolean-12-en-28-oic acid morpholide]
IC50 (HeLa): 45.3 µM
Selectivity Index HeLa (HeLa): 1.46
IC50 (KB): 45.9 µM
Selectivity Index KB (KB): 1.44
IC50 (MCF-7): 41.7 µM
Selectivity Index MCF-7 (MCF-7): 1.58
IC50 (A-549): 46.8 µM
Selectivity Index A-549 (A-549): 1.41
IC50 ([1]; Homo sapiens, Fibroblast): 66.2 µM
IC50 [2, 4]: 40 to 66 µM

COC(=O)[C@]12CCC(C)(C)CC1C1=CC(=O)C3[C@@]4(C)CC/C(=N\OC(=O)CCl)C(C)(C)C4CC[C@@]3(C)[C@]1(C)CC2 (some centres unmarked) [Compound 6b, 3-Chloroacetoxyimino-11-oxoolean12-en-28-oic acid methyl ester]
IC50 (HeLa): 61 µM
Selectivity Index HeLa (HeLa): 1.44
IC50 (KB): 61 µM
Selectivity Index KB (KB): 1.44
IC50 (MCF-7): 64.1 µM
Selectivity Index MCF-7 (MCF-7): 1.37
IC50 (A-549): 61.8 µM
Selectivity Index A-549 (A-549): 1.42
IC50 ([1]; Homo sapiens, Fibroblast): 88 µM
IC50 [2, 5]: 61 to 64 µM

COC(=O)C12CCC(C)(C)CC1C1=CCC3C4(C)CCC(=NO)C(C)(C)C4CCC3(C)C1(C)CC2 (centres unmarked) [Compound 2, methyl oleanonate oxime]
Selectivity Index HeLa (HeLa): 1.60
Selectivity Index KB (KB): 1.70
Selectivity Index MCF-7 (MCF-7): 1.38
IC50 (A-549): 13 µM
Selectivity Index A-549 (A-549): 1.62
IC50 ([1]; Homo sapiens, Fibroblast): 21.1 µM
